Results as given in patent publication US20250032627A1, “T[…] BASED UPON DRUG CONJUGATES” (priority 2023, published 2025).

What was measured:
U87 glioblastoma cells = assay: In vitro cytotoxicity, cell viability by SRB method; assay type: cell-based, human; settings: CPT compared with CPT-K3
Protocol: FIG. 10A is a table providing the IC50 of CPT and CPT-K3. FIG. 10B is a plot of cell viability (%) vs. concentration;
FIG. 10A is a table providing the IC50 of CPT and CPT-K3. FIG. 10B is a plot of cell viability (%) vs. concentration. In this example, cell viability (%) was determined using the SRB method.

[1] = Solubility and stability of CPT-K3 in borate buffer precursor solution; assay type: physicochemical
Description: Referring now to FIG. 3, CPT-K3 remains stable in a clear precursor solution.

Row | SMILES | cytotoxicity against the U87 glioblastoma cell line (U87 glioblastoma cells) | stability in borate buffer (time stable) ([1]; 75-mM borate buffer) | solubility in borate buffer ([1]; borate buffer)
1 | CC[C@@]1(O)C(=O)OCc2c1cc1n(c2=O)Cc2cc3ccccc3nc2-1 [CPT, camptothecin, reference compound] | comparable cytotoxicity | – | –
2 | CC[C@@]1(OC(=O)CCC(=O)N[C@@H](CCCCN)C(=O)N[C@@H](CCCCN)C(=O)N[C@@H](CCCCN)C(=O)O)C(=O)OCc2c1cc1n(c2=O)Cc2cc3ccccc3nc2-1 [CPT-K3] | comparable cytotoxicity | at least 24 hours | good solubility
